Reference: patent EP4620476A1, “ANTIVIRAL COMPOSITION CONTAINING INCLUSION COMPOUNDS WITH CYCLODEXTRINS AS ACTIVITY MODULATORS AND ANTISEPTIC ACTIVES AND USES THEREOF” (Silva, Renata Moisés Iwamizu, priority 2022, dated 2024)
Counter-ions that a name gives are not always drawn.

Tests used:
HSV-1 = test: Virucidal assay: HSV-1 incubated with product, then added to Vero cells, MTT readout; assay type: cell-based; settings: 3 µg/mL
Protocol: (§1) The product was evaluated for its effective concentration against the virus without causing toxicity to the tested cells. The virus (HSV-1) was added to different dilutions of the product and incubated for 1 hour at 37°C. Then, the solution was diluted (1:10) and added to Vero cells (ATCC CCL-81) for incubation for 72 hours at 37°C and 5% CO2. Positive control (virus without treatment with the inclusion compounds) and negative control (cells without virus and without treatment) were used, under the same conditions, in all tests. The results were evaluated by MTT (Mosmann, 1983; Sieuwerts et al., 1995). The assays were carried out in a NB-2 laboratory (Biosafety Level 2) following Good Laboratory Practices (GLP) and in accordance with the recommendations of ANVISA (Art. 1 and Art. 3 of IN 04/13 and IN 12/16).

[1] = Cytotoxicity in Vero cells (MTT); assay type: cell-based; settings: monkey
Protocol: as §1

[2] = cited from earlier work

SMILES	inactivation of HSV-1 (HSV-1)	CC50 at 72 h [1] [mg/L]	plasma protein binding [2]
N=C(NCCCCCCNC(=N)NC(=N)Nc1ccc(Cl)cc1)NC(=N)Nc1ccc(Cl)cc1 [digluconate salt of chlorhexidine]	unable to inactivate HSV-1	> 3	–
Nc1nc2c(ncn2COCCO)c(=O)[nH]1 [Acyclovir]	–	–	less than 20%
